Values after ≈ are worked out from the molar mass of the structure shown. Read-outs that look alike come from different tables or passages of the source.
What was measured:
MEL-28 = assay: Lamellarin in vitro activity vs. tumor cell lines, MEL-28; format: cell-based; settings: Homo sapiens, SK-MEL-28; MEL-28, Table IV
A549 = assay: Lamellarin in vitro activity vs. tumor cell lines, A549; settings: for IC50: Homo sapiens; for in vitro antitumor activities: compared with lamellarins I, K and L, particularly A549 cells
P388 = assay: Lamellarin in vitro activity vs. tumor cell lines, P388; settings: Mus musculus
HT-29 = assay: Lamellarin in vitro activity vs. tumor cell lines, HT-29; format: cell-based; settings: Homo sapiens; HT-29, Table IV
P-388/SCHABEL (MDR) = assay: LAMELLARINS TOXICITY TO RESISTANT (MDR) TUMOR CELL LINE P-388/SCHABEL (MTT); format: cell-based; settings: Mus musculus, P388, 72 h, read-out: ACTIVITY: IC50
Experimental: (§1) Sensitive and MDR cells were maintained, in logarithmic phase of growth, in Eagle's Minimum Essential Medium, with Earle's Balanced Salts, with non-essential amino acids, with 2.0 mM L-glutamine, without sodium bicarbonate (EMEM/neaa), supplemented with 5% Fetal Calf Serum (FCS), 10^-2 M sodium bicarbonate and 0.1 g/l penicillin G+0.1 g/l streptomycin sulfate.
(§2) In Vitro cell cytotoxicity was determined using the 3-[4,5-dimethylthiazol-2-yl]-2,5-dipheniltetrazolium bromide (MTT), from Sigma Ref:M-2128, for quantitative measurement of cell growth and viability. See, T. Mosmann, "Rapid Colorimetric Assay for Cellular Growth and Survival: Application to Proliferation and Cytotoxicity Assays," Journal of Immunological Methods, 65: 55-63 (1983).
(§3) The tumor cell lines employed have been: P-388 (ATCC CCL 46), suspension culture of a lymphoid neoplasm from a DBA/2 mouse and its corresponding MDR cell line P-388/SCHABEL; CHOB1 (ATCC CCL 16), monolayer culture of chinese hamster ovary and its corresponding MDR cell line CHOC5. See, Rauscher Ill, et al., "Characterization of Auromycin-Resistant Hamster Cell Mutants that Display a Multidrug Resistance Phenotype," Molecular Pharmacology, 38: 198-206 (1990).
(§4) This form of assay employs 96-well cell culture plates […]. Cells were seeded into wells at 1×10^3 cells per well in 100 μl aliquots of EMEM 5% FCS containing different concentrations of the corresponding lamellarins and other compounds (standards) to be tested. Two separate sets of cultures without drugs were seeded, one as control of growth to ensure that cells remained in exponential phase of growth, and another without cells as control of medium. All determinations were carried out in duplicate.
(§5) After three days of incubation at 37° C., 10% CO2 in a 98% humid atmosphere, 150 μg of MTT is added to each well in 50 μl aliquots of assay medium. Plates were incubated for an additional 4 hours and 100 μl aliquots of isopropanol were added to each well. The broad absorption spectrum for the isopropanol solution of this crystal is optimal at 570 nm. Optical density values were obtained with the help of a Dynatech microplate reader and the results of the assay were used to generate graphics from which IC50 was calculated; i.e., wherein the IC50 is the test concentration which produces 50% cell growth inhibition.

CHOC5 (MDR) = assay: LAMELLARINS TOXICITY TO RESISTANT (MDR) TUMOR CELL LINE CHOC5 (MTT); format: cell-based, chinese hamster; settings: Cricetulus griseus, 72 h, read-out: ACTIVITY: IC50
Experimental: as §1, §2, §3, §4, §5

P-388 = assay: LAMELLARINS TOXICITY TO SENSITIVE TUMOR CELL LINE P-388 (MTT); format: cell-based; settings: Mus musculus, P388, 72 h, read-out: ACTIVITY: IC50
Experimental: as §1, §2, §3, §4, §5

CHOB1 = assay: LAMELLARINS TOXICITY TO SENSITIVE TUMOR CELL LINE CHOB1 (MTT); format: cell-based, chinese hamster; settings: Cricetulus griseus, 72 h, read-out: ACTIVITY: IC50
Experimental: as §1, §2, §3, §4, §5

MLR = assay: Immunomodulatory activity (LcV:MLR); format: cell-based; settings: in words
[1] = tested on: P388 Lymphocytic Leukemia; assay: In vivo anti-tumor activity vs P388 lymphocytic leukemia; set-up: species or system mouse; settings: total 75.000 mg/kg, QD 1-5, ip
[2] = P-388/SCHABEL (MDR), MTT, three days
[3] = P-388, sensitive, MTT, three days
[4] = CHOB1, sensitive, MTT, three days

Question: Which results are given for `COc1cc2c(cc1O)CCn1c-2c(-c2ccc(OC)c(OC)c2)c2c3cc(OC)c(O)cc3oc(=O)c21` [Lamellarin J]?
Answer: IC50 (MEL-28): 2.5 µg/mL (≈ 4.85 µM); IC50 (A549; A549): 0.025 µg/mL (≈ 0.0485 µM); in vitro antitumor activities (A549): significantly better, particularly against A549 cells, than the lamellarins I, K and L; IC50 (P388; P388): 0.1 µg/mL (≈ 0.194 µM); IC50 (HT-29): 2.5 µg/mL (≈ 4.85 µM); IC50 (P-388/SCHABEL (MDR); [2]): 2 µg/mL (≈ 3.88 µM); IC50 (CHOC5 (MDR); CHOC5 (MDR), MTT, three days): 0.6 µg/mL (≈ 1.16 µM); IC50 (P-388; [3]): 1.5 µg/mL (≈ 2.91 µM); IC50 (CHOB1; [4]): 0.3 µg/mL (≈ 0.582 µM)

Question: With `COc1ccc(-c2c3c4cc(OC)c(OC(C)=O)cc4oc(=O)c3n3ccc4cc(OC(C)=O)c(OC)cc4c23)cc1OC(C)=O` [Lamellarin N-triacetate] as the compound, how does the IC50 (MEL-28) read?
Answer: 5 µg/mL (≈ 7.99 µM)

Question: And the IC50 (A549; A549)?
Answer: 0.012 µg/mL (≈ 0.0192 µM)

Question: What about the “in vitro antitumor activities” value (A549) of the same compound?
Answer: significantly better, particularly against A549 cells, than the lamellarins I, K and L

Question: What about the IC50 (P388; P388) of the same compound?
Answer: 0.1 µg/mL (≈ 0.16 µM)

Question: And the IC50 (HT-29)?
Answer: 5 µg/mL (≈ 7.99 µM)

Question: What about the IC50 (P-388/SCHABEL (MDR); [2]) of the same compound?
Answer: 0.2 µg/mL (≈ 0.32 µM)

Question: And the IC50 (CHOC5 (MDR); CHOC5 (MDR), MTT, three days)?
Answer: 0.1 µg/mL (≈ 0.16 µM)

Question: What about the IC50 (P-388; [3]) of the same compound?
Answer: 0.09 µg/mL (≈ 0.144 µM)

Question: What about the IC50 (CHOB1; [4]) of the same compound?
Answer: 0.06 µg/mL (≈ 0.0959 µM)

Question: With `COc1cc(-c2c3c4cc(OC)c(O)cc4oc(=O)c3n3ccc4c(O)c(OC)c(OC)cc4c23)ccc1O` [Lamellarin M] as the compound, how does the IC50 (MEL-28) read?
Answer: 0.5 µg/mL (≈ 0.944 µM)

Question: What about the IC50 (A549; A549) of the same compound?
Answer: 0.025 µg/mL (≈ 0.0472 µM)

Question: What about the “in vitro antitumor activities” value (A549) of the same compound?
Answer: significantly better, particularly against A549 cells, than the lamellarins I, K and L

Question: What about the IC50 (P388; P388) of the same compound?
Answer: 0.05 µg/mL (≈ 0.0944 µM)

Question: What about the IC50 (HT-29) of the same compound?
Answer: 0.5 µg/mL (≈ 0.944 µM)

Question: And the IC50 (P-388/SCHABEL (MDR))?
Answer: 0.09 µg/mL (≈ 0.17 µM)

Question: And the IC50 (CHOC5 (MDR))?
Answer: 0.09 µg/mL (≈ 0.17 µM)

Question: And the IC50 (P-388)?
Answer: 0.08 µg/mL (≈ 0.151 µM)

Question: And the IC50 (CHOB1)?
Answer: 0.04 µg/mL (≈ 0.0755 µM)

Question: `COc1cc(-c2c3n(c4c(=O)oc5cc(O)c(OC)cc5c24)CCc2c-3cc(OC)c(OC)c2O)ccc1O` [Lamellarin K] was tested. Which IC50 (A549; A549) did it give?
Answer: 0.25 µg/mL (≈ 0.47 µM)

Question: What about the IC50 (A549; A549, read-out: cytotoxicity IC50) of the same compound?
Answer: ~0.25 µg/mL (≈ 0.47 µM)

Question: What about the immunomodulatory activity (MLR) of the same compound?
Answer: moderate immunomodulatory activity

Question: What about the IC50 (P388; P388) of the same compound?
Answer: 0.25 µg/mL (≈ 0.47 µM)

Question: And the IC50 (P388; P388, read-out: cytotoxicity IC50)?
Answer: ~0.25 µg/mL (≈ 0.47 µM)

Question: What about the “% T/C” value [1] of the same compound?
Answer: > 135.0%

Question: And the “Body Weight Change Day 5” value [1]?
Answer: 1.2 gm

Question: What about the “Body Weight Day 5” value [1] of the same compound?
Answer: 20.7 ± 0.5 gm

Question: What about the “Mean Survival Time” value [1] of the same compound?
Answer: 28.3 ± 5.9

Question: What about the “Body Weight Day 0” value ([1]; baseline) of the same compound?
Answer: 19.5 ± 0.5 gm

Question: And the IC50 (HT-29)?
Answer: 1 µg/mL (≈ 1.88 µM)

Question: What about the IC50 (P-388/SCHABEL (MDR); [2]) of the same compound?
Answer: 0.1 µg/mL (≈ 0.188 µM)

Question: And the IC50 (CHOC5 (MDR); CHOC5 (MDR), MTT, three days)?
Answer: 0.4 µg/mL (≈ 0.753 µM)

Question: And the IC50 (P-388; [3])?
Answer: 0.1 µg/mL (≈ 0.188 µM)

Question: What about the IC50 (CHOB1; [4]) of the same compound?
Answer: 0.1 µg/mL (≈ 0.188 µM)

Question: For `COc1cc(-c2c3c4cc(OC)c(O)cc4oc(=O)c3n3ccc4c(OC)c(OC)c(OC)cc4c23)ccc1O` [Lamellarin B], which IC50 (P-388/SCHABEL (MDR); [2]) is on record?
Answer: 5.5 µg/mL (≈ 10.1 µM)

Question: What about the IC50 (CHOC5 (MDR); CHOC5 (MDR), MTT, three days) of the same compound?
Answer: 10 µg/mL (≈ 18.4 µM)

Question: And the IC50 (P-388; [3])?
Answer: 5.5 µg/mL (≈ 10.1 µM)

Question: What about the IC50 (CHOB1; [4]) of the same compound?
Answer: 3 µg/mL (≈ 5.52 µM)

Question: How did the IC50 (P-388/SCHABEL (MDR); [2]) turn out when `COc1ccc(-c2c3n(c4c(=O)oc5cc(OC(C)=O)c(OC)cc5c24)CCc2cc(OC(C)=O)c(OC)cc2-3)cc1OC(C)=O` [Lamellarin L-triacetate] was run?
Answer: 1.5 µg/mL (≈ 2.39 µM)

Question: And the IC50 (CHOC5 (MDR); CHOC5 (MDR), MTT, three days)?
Answer: 1.5 µg/mL (≈ 2.39 µM)

Question: What about the IC50 (P-388; [3]) of the same compound?
Answer: 1.5 µg/mL (≈ 2.39 µM)

Question: What about the IC50 (CHOB1; [4]) of the same compound?
Answer: 1.5 µg/mL (≈ 2.39 µM)

Question: Which results are given for `COc1ccc(-c2c3n(c4c(=O)oc5cc(OC(C)=O)c(OC)cc5c24)CCc2c-3cc(OC)c(OC)c2OC)cc1OC` [Lamellarin I-acetate]?
Answer: IC50 (P-388/SCHABEL (MDR); [2]): 5.5 µg/mL (≈ 9.14 µM); IC50 (CHOC5 (MDR); CHOC5 (MDR), MTT, three days): 5 µg/mL (≈ 8.31 µM); IC50 (P-388; [3]): 5.5 µg/mL (≈ 9.14 µM); IC50 (CHOB1; [4]): 2.5 µg/mL (≈ 4.16 µM)

Question: What does the source list for `C/C=C/C[C@@H](C)C(=O)[C@H]1C(=O)N[C@@H](C(C)C)C(=O)N(C)CC(=O)N(C)[C@@H](CC(C)C)C(=O)N[C@@H](C(C)C)C(=O)N(C)[C@@H](CC(C)C)C(=O)N[C@@H](C)C(=O)N[C@H](C)C(=O)N(C)[C@@H](CC(C)C)C(=O)N(C)[C@@H](CC(C)C)C(=O)N(C)[C@@H](C(C)C)C(=O)N1C` [PSC833, reference compound]?
Answer: IC50 (P-388/SCHABEL (MDR); [2]): 0.05 µg/mL (≈ 0.0412 µM); IC50 (CHOC5 (MDR); CHOC5 (MDR), MTT, three days): 0.1 µg/mL (≈ 0.0823 µM); IC50 (P-388; [3]): 0.02 µg/mL (≈ 0.0165 µM); IC50 (CHOB1; [4]): 0.04 µg/mL (≈ 0.0329 µM)

Source: patent publication US5852033A, “Methods of treatment using lamellarin-class alkaloids” (Pharma Mar, s.a., priority 1995, dated 1998)
